Measured values from US20110092448A1, “Peptide Conjugate for Oral Delivery of Hydrophilic Peptide Analgesics” (METABOLIC PHARMACEUTICALS LIMITED, priority 2005, published 2011).
Like-named read-outs stand apart in the source and are kept apart here.

Assays:
[1] = system: blood calcium levels in normal CD-1 mice; assay: Blood (serum) calcium levels in normal mice after EP-PTH; assay type: in vivo, mouse; details: oral gavage 40, 200 or 400 μg/kg, 1 h
Method: (§1) EP-PTH was administered orally to normal mice and the anabolic action on blood calcium levels were measured. More specifically, after an initial blood sampling at time zero, groups of normal CD-1 mice were administered EP-PTH via either oral gavage (40 μg/kg, 200 μg/kg or 400 μg/kg) or subcutaneous injection (40 μg/kg) as described in Example 3. One hour after the administration of the EP-PTH and a second blood sample was taken. The serum calcium levels of blood samples were then assessed by an enzymatic method.
(§2) The person skilled in the art will understand that the method of estimating oral availability by identifying an oral dose response curve in a pharmacodynamic animal experiment and comparing with the parenterally administered dose response curve may be used in assessing the application of the invention to other parent peptides.

[2] = as above; assay type: in vivo, mouse; details: mouse, serum; CD-1 mice, oral vs subcutaneous; read-out: oral bioavailability based on pharmacodynamic measurements
Method: as §1, §2

[3] = cited from earlier work
[4] = system: STZ diabetic Sprague-Dawley rats with neuropathic pain; details: rat, in vivo, po

## CC[C@H](C)[C@H](NC(=O)[C@H](CCC(=O)O)NC(=O)[C@H](CO)NC(=O)[C@@H](NC(=O)[C@H](CO)NC(=O)[C@H](CCC(N)=O)NC(=O)[C@@H](NC(=O)[C@@H](NC(=O)[C@H](CCCNC(=N)N)NC(=O)[C@@H](N)CC(C)C)[C@@H](C)CC)C(C)C)C(C)C)C(=O)N[C@@H](CCC(N)=O)C(=O)N[C@@H](CC(C)C)C(=O)N[C@@H](CCSC)C(=O)N[C@@H](Cc1c[nH]cn1)C(=O)N[C@@H](CC(N)=O)C(=O)N[C@@H](CC(C)C)C(=O)NCC(=O)N[C@@H](CCCCN)C(=O)N[C@@H](Cc1c[nH]cn1)C(=O)N[C@@H](CC(C)C)C(=O)N[C@@H](CC(N)=O)C(=O)N[C@@H](CO)C(=O)N[C@@H](CCSC)C(=O)N[C@@H](CCC(=O)O)C(=O)N[C@@H](CCCNC(=N)N)C(=O)N[C@H](C(=O)N[C@@H](CCC(=O)O)C(=O)N[C@@H](Cc1c[nH]c2ccccc12)C(=O)N[C@@H](CC(C)C)C(=O)N[C@@H](CCCNC(=N)N)C(=O)N[C@@H](CCCCN)C(=O)N[C@@H](CCCCN)C(=O)N[C@@H](CC(C)C)C(=O)N[C@@H](CCC(N)=O)C(=O)N[C@@H](CC(=O)O)C(=O)N[C@H](C(=O)N[C@@H](Cc1c[nH]cn1)C(=O)N[C@@H](CC(N)=O)C(=O)N[C@@H](Cc1ccccc1)C(=O)O)C(C)C)C(C)C [EP-PTH]
[1]
  effect on blood calcium levels compared to vehicle control: dose-dependent effect
[2]
  bioavailability: ~10%

## AOD9604: AOD peptide derived from the C-terminal sequence of human growth hormone, earlier applications (YLRIVQCRSVEGSCGF)
[3]; earlier applications PCT/AU98/00724, PCT/AU01/00354, PCT/AU00/01362
  oral bioavailability: substantially orally bioavailable

## Tyr-Leu-Arg-Ile-Val-Gly-Cys-Cys-Ser-Asp-Pro-Arg-Cys-Asn-Tyr-Asp-His-Pro-Glu-Ile-Cys-NH2 [ACV3.2]
[4]
  oral availability: substantial oral availability
[4]; 1 mg/kg
  analgesic effect vs vehicle group: significant difference

## parathyroid hormone: hormone known to regulate levels of blood calcium; parent peptide of EP-PTH
[3]; reported
  oral bioavailability: about 0.3%
